Laboratory results as given in patent publication US20190367516A1 (Bayer Pharma Aktiengesellschaft, priority 2015, published 2019).
Like-named read-outs stand apart in the source and are kept apart here.

Target: T1, human M2 receptor (Homo sapiens, UniProt P08172)
T1 sequence (P08172 1-466): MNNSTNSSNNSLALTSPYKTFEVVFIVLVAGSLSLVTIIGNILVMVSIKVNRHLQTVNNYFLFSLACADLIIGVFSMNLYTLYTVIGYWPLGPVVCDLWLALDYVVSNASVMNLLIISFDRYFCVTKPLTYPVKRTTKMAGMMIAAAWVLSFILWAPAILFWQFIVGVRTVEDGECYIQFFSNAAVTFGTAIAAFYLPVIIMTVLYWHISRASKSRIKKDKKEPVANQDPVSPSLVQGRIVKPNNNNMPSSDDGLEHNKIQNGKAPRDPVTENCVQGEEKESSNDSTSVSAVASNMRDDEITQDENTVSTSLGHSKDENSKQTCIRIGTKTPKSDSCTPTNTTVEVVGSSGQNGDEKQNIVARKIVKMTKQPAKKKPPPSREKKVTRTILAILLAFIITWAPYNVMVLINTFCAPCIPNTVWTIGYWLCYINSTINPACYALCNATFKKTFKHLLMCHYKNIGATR
Conditions: for Emax: read-out: Efficiency, boosting of the acetylcholine effect at EC20 acetylcholine concentration; for Efficiency: boosting of the acetylcholine effect at EC20 acetylcholine concentration

[1] = Receptor activity EC50, M2-GIRK1/4 activation test, acetylcholine at EC20, allosteric potency, in some cases mean values from two or more determinations
[2] = Receptor activity EC50, allosteric potency at EC20 acetylcholine, M2-GIRK1/4 reporter cells, in some cases mean of two or more determinations

Row | SMILES | EC50 [1] [nM] | EC50 [2] [nM] | Emax (M2-GIRK1/4 reporter cells) [%] | Efficiency (M2-GIRK1/4 reporter cells) [%]
1 | O=C(NC(c1c(F)cccc1F)C(F)(F)F)c1cn(-c2ccc(F)cc2F)c2nc(N3CCC(O)CC3=O)ccc2c1=O (single isomer, unassigned) [Example 256, 1-(2,4-Difluorophenyl)-N-[1-(2,6-difluorophenyl)-2,2,2-trifluoroethyl]-7-[4-hydroxy-2-oxopiperidin-1-yl]-4-oxo-1,4-dihydro-1,8-naphthyridine-3-carboxamide] | 147 |  |  | 
2 | CC[C@@H](NC(=O)c1cn(-c2ccc(F)cc2F)c2nc(N3CCOC(C(F)F)C3)ccc2c1=O)C(F)(F)F (single isomer, unassigned) [Example 264] | 530 |  |  | 
3 | CC[C@@H](NC(=O)c1cn(-c2ccc(F)cc2F)c2nc(N3CCOC(C(F)F)C3)ccc2c1=O)C(F)(F)F (single isomer, unassigned) [Example 265] | 23700 |  |  | 
4 | CC[C@@H](NC(=O)c1cn(-c2ccccc2C(F)(F)F)c2nc(N3C[C@@H](O)CC3=O)ccc2c1=O)C(F)(F)F (single isomer, unassigned) [Example 269] | 210 |  |  | 
5 | CC[C@@H](NC(=O)c1cn(-c2ccccc2C(F)(F)F)c2nc(N3C[C@@H](O)CC3=O)ccc2c1=O)C(F)(F)F (single isomer, unassigned) [Example 270] | 1600 |  |  | 
6 | CC[C@@H](NC(=O)c1cn(-c2c(F)cccc2F)c2nc(N3CCC(C)(O)C3)ccc2c1=O)C(F)(F)F (single isomer, unassigned) [Example 277] | 78 |  |  | 
7 | O=C(NC(c1ccccc1Cl)C(F)(F)F)c1cn(-c2ccccc2F)c2nc(N3CCC(O)C3=O)ccc2c1=O (single isomer, unassigned) [Example 290] | 312 |  |  | 
8 | O=C(NC(c1ccccc1Cl)C(F)(F)F)c1cn(-c2ccccc2F)c2nc(N3CCC(O)C3=O)ccc2c1=O (single isomer, unassigned) [Example 291] | 673 |  |  | 
9 | CC[C@@H](NC(=O)c1cn(-c2c(F)cccc2F)c2nc(N3CCC(O)C3=O)ccc2c1=O)C(F)(F)F (single isomer, unassigned) [Example 293] | 73 |  |  | 
10 | CC[C@@H](NC(=O)c1cn(-c2ccc(F)cc2F)c2nc(N3CC(C)CC3=O)ccc2c1=O)C(F)(F)F (single isomer, unassigned) [Example 302] | 17 |  |  | 
11 | CC[C@@H](NC(=O)c1cn(-c2ccc(F)cc2F)c2nc(N3CC(C)CC3=O)ccc2c1=O)C(F)(F)F (single isomer, unassigned) [Example 303] | 60 |  |  | 
12 | C[C@H](NC(=O)c1cn(-c2c(F)cccc2F)c2nc(N3CC4CC4(O)C3)ccc2c1=O)C(F)(F)F (single isomer, unassigned) [Example 312] | 72 |  |  | 
13 | C[C@H](NC(=O)c1cn(-c2c(F)cccc2F)c2nc(N3CC4CC4(O)C3)ccc2c1=O)C(F)(F)F (single isomer, unassigned) [Example 313] | 71 |  |  | 
14 | C[C@H](NC(=O)c1cn(-c2c(F)cc(F)cc2F)c2nc(N3CC4CC4(O)C3)ccc2c1=O)C(F)(F)F (single isomer, unassigned) [Example 317] | 26 |  |  | 
15 | C[C@H](NC(=O)c1cn(-c2c(F)cc(F)cc2F)c2nc(N3CC4CC4(O)C3)ccc2c1=O)C(F)(F)F (single isomer, unassigned) [Example 318] | 14 |  |  | 
16 | CC(C)(CC(F)(F)F)NC(=O)c1cn(-c2c(F)cc(F)cc2Cl)c2nc(N3C[C@@H](O)[C@H](O)C3)ccc2c1=O (single isomer, unassigned) [Example 392] | 6 |  |  | 
17 | CC(C)(CC(F)(F)F)NC(=O)c1cn(-c2c(F)cc(F)cc2Cl)c2nc(N3C[C@@H](O)[C@H](O)C3)ccc2c1=O (single isomer, unassigned) [Example 393] | 125 |  |  | 
18 | CCC(COC(F)(F)F)NC(=O)c1cn(-c2c(F)cc(F)cc2F)c2nc(N3C[C@@H](O)CC3=O)ccc2c1=O (single isomer, unassigned) [Example 411] |  | 21 | 100 | 
19 | CC[C@H](NC(=O)c1cn(-c2c(F)cc(F)cc2Cl)c2nc(N3CCC(C)C3=O)ccc2c1=O)C(F)(F)F (single isomer, unassigned) [Example 423] |  | 3150 |  | 53.5
20 | CC[C@@H](NC(=O)c1cn(-c2ccc(F)cc2F)c2nc(N3C(=O)CCC3C)ccc2c1=O)C(F)(F)F (single isomer, unassigned) [Example 427] |  | 19 | 91.5 | 
21 | CC[C@@H](NC(=O)c1cn(-c2ccc(F)cc2F)c2nc(N3C(=O)CCC3C)ccc2c1=O)C(F)(F)F (single isomer, unassigned) [Example 428] |  | 72 |  | 86.0
22 | CC[C@@H](NC(=O)c1cn(-c2ccc(F)cc2F)c2nc(N3CC(C)NC3=O)ccc2c1=O)C(F)(F)F (single isomer, unassigned) [Example 433] |  | 170 |  | 100.0
23 | O=C(NC(CC(F)(F)F)C1CC1)c1cn(-c2c(F)cc(F)cc2F)c2nc(N3C[C@@H](O)[C@H](O)C3)ccc2c1=O (single isomer, unassigned) [Example 440] |  | 23 |  | 98.5
24 | CC(NC(=O)c1cn(-c2c(F)cc(F)cc2F)c2nc(N3C[C@@H](O)[C@H](O)C3)ccc2c1=O)(C1CC1)C(F)(F)F (single isomer, unassigned) [Example 442] |  | 10 | 100 | 
25 | CCC1CCN(c2ccc3c(=O)c(C(=O)N[C@@H](C4CC4)C(F)(F)F)cn(-c4c(F)cc(F)cc4F)c3n2)C(=O)N1 (single isomer, unassigned) [Example 447, N-[(1 S)-1-Cyclopropyl-2,2,2-trifluoroethyl]-7-[4-ethyl-2-oxotetrahydropyrimidin-1(2H)-yl]-4-oxo-1-(2,4,6-trifluorophenyl)-1,4-dihydro-1,8-naphthyridine-3-carboxamide] |  | 24 | 93 | 
26 | CC(NC(=O)c1cn(-c2c(F)cc(F)cc2F)c2nc(N3C[C@@H](C)NC3=O)ccc2c1=O)C(F)(F)C(F)(F)F (single isomer, unassigned) [Example 459] |  | 4 | 95 | 
27 | CC(NC(=O)c1cn(-c2c(F)cc(F)cc2F)c2nc(N3C[C@@H](C)NC3=O)ccc2c1=O)C(F)(F)C(F)(F)F (single isomer, unassigned) [Example 460] |  | 5 |  | 98.0
28 | O=C(N[C@@H](C1CC1)C(F)(F)F)c1cn(-c2c(F)cc(F)cc2F)c2nc(N3CCOC(CO)C3)ccc2c1=O (single isomer, unassigned) [Example 464, N-[(1 S)-1-Cyclopropyl-2,2,2-trifluoroethyl]-7-[2-(hydroxymethyl)morpholin-4-yl]-4-oxo-1-(2,4,6-trifluorophenyl)-1,4-dihydro-1,8-naphthyridine-3-carboxamide] |  | 128 | 82.5 | 
29 | O=C(N[C@@H](C1CC1)C(F)(F)F)c1cn(-c2c(F)cc(F)cc2F)c2nc(N3CCOC(CO)C3)ccc2c1=O (single isomer, unassigned) [Example 465, N-[(1 S)-1-Cyclopropyl-2,2,2-trifluoroethyl]-7-[2-(hydroxymethyl)morpholin-4-yl]-4-oxo-1-(2,4,6-trifluorophenyl)-1,4-dihydro-1,8-naphthyridine-3-carboxamide] |  | 76 |  | 89.0
30 | CCC(NC(=O)c1cn(-c2c(F)cc(F)cc2F)c2nc(N3C[C@@H](O)CC3=O)ccc2c1=O)C(C)C (single isomer, unassigned) [Example 485] |  | 6 | 100 | 
